Source: article PMC2579264 (European journal of pharmacology, 2008)
Residue numbers refer to the chain shown, from its start.

Columns and labels:
[1] = test system: CHO cells expressing the A^34A^35 receptor; assay: Bio-Gel P-4 gel filtration of internalized agonist, A^34A^35 receptor; details: 100 pM [^125I] peptide YY(3–36); detected by [^125I] label; 2 to 15 min
[2] = test system: Chinese hamster ovary (CHO) cells; assay: Loss of cell protein or detachment of cells after digitonin pretreatment; assay type: cell-based; details: 10 µM digitonin pretreatment at 25 °C
[3] = biological target: T1, human neuropeptide Y Y2 receptor, A^34A^35 (Homo sapiens, UniProt P49146, D35A/P34A); assay: Receptor-linked internalization of agonist, A^34A^35 mutant; assay type: cell-based; details: heparin 5 µM, n = 12
T1 sequence (P49146 1-381 P34A/D35A): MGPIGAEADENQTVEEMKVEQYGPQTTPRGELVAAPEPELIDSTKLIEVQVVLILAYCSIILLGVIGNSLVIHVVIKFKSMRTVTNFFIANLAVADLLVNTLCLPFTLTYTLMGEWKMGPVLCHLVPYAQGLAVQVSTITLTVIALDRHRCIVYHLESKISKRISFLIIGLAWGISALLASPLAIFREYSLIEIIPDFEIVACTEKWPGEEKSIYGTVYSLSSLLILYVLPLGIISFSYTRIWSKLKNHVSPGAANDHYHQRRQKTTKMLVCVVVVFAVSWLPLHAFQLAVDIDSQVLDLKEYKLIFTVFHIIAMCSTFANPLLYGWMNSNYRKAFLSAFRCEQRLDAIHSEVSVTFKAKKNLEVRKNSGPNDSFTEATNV

[4] = test system: neuropeptide Y Y2 receptor; assay: Effect of heparin on binding of peptide YY; set-up: species or system human; details: heparin up to 30 µM; cell surface or particulate Y2 receptors
[5] = biological target: T2, human neuropeptide Y Y2 receptor, wildtype (P^34D^35) (Homo sapiens, UniProt P49146); assay: Receptor-linked internalization of agonist, wildtype Y2 receptor; assay type: cell-based; details: heparin 5 µM, n = 12
T2 sequence (P49146 1-381): T1 sequence (P49146 1-381 P34A/D35A) with A34P, A35D

[6] = test system: human neuropeptide Y Y2 receptor, wildtype; assay type: cell-based
[7] = biological target: T1, human neuropeptide Y Y2 receptor, A^34A^35; assay: Compartmentalization: unmasking / depletion of surface sites, A^34A^35 mutant; assay type: cell-based

For `N[C@@H](Cc1ccc(O)cc1)C(=O)O` [C-terminal tyrosine, tyrosine], the “accumulation of product of peptide YY processing in cells” value [1] was “no accumulation”.
`C[C@@H]1CC[C@@]2(OC1)O[C@H]1[C@@H](O)[C@H]3[C@@H]4CC[C@H]5C[C@@H](O[C@@H]6O[C@H](CO)[C@H](O[C@@H]7O[C@H](CO)[C@@H](O)[C@H](O[C@@H]8OC[C@@H](O)[C@H](O)[C@H]8O)[C@H]7O[C@@H]7O[C@H](CO)[C@H](O)[C@H](O[C@@H]8O[C@H](CO)[C@@H](O)[C@H](O)[C@H]8O)[C@H]7O)[C@H](O)[C@H]6O)[C@H](O)C[C@]5(C)[C@H]4CC[C@]3(C)[C@H]1[C@@H]2C` [digitonin] was tested, and the “loss of cell protein or detachment of cells” value [2] was “did not result in a loss of cell protein or a detachment of cells”.
With heparin the “increase of internalization of 100 pM [^125I] peptide YY(3–36)” value (shortened to “increase of internalization of 100 pM”) ([3]; 4 min) was 43.5 ± 3.5%, the “increase of internalization of 100 pM” value ([3]; 10 min) was 25.1 ± 5% and the “effect on affinity and capacity of binding of peptide YY(3–36)” value [4] was “did not affect the affinity and capacity of the binding”. For the same compound, the “increase of internalization of 100 pM” value ([5]; 4 min) was 19.4 ± 2% and the “increase of internalization of 100 pM” value ([5]; 10 min) was 4.8 ± 1.8%.
In the case of “pertussis toxin: pertussis toxin, used to deplete the compartmentalized surface Y2 sites”, the “basal cell surface binding of [^125I] peptide YY(3–36) after pertussis toxin” value [6] is reported as “did not substantially reduce”, the “surface sites unmasked by the arsenical after pertussis toxin” value [6] is reported as “strongly reduced” and the “basal cell surface binding of [^125I] peptide YY(3–36) after pertussis toxin” value [7] is reported as “did not substantially reduce”. For the same compound, the “surface sites unmasked by the arsenical after pertussis toxin” value [7] was “almost eliminated”.
